Assay results reported in patent publication US20110319398A1 (priority 2010, published 2011).

Legend:
[1] = tested on: Yptb WT IP2666; type: cell-based, Y. pseudotuberculosis; conditions: 60 μM compound, 26 C, 7 hrs
[2] = tested on: YscF; type: cell-based, Y. pseudotuberculosis; conditions: 60 μM compound, 5 mM CaCl2, 37 C, 1.5 hours
[3] = tested on: YopE leaked into culture supernatants; type: cell-based, Y. pseudotuberculosis; conditions: 60 μM compound, HEp-2 cells infected with WT Yptb, compared to DMSO
[4] = tested on: ExoS translocation from P. aeruginosa Pa388 into HEp-2 cells; type: cell-based
[5] = tested on: HEp-2 cells; assay: LDH release assay; type: cell-based; conditions: 60 μM compound, absence of Yptb
Description: Compounds were resuspended in RPMI supplemented with 5% FBS to a final concentration of 60 μM. Media was replaced with a volume of 100 μL and cells were incubated at 37 C and 5% CO2. A 50 μL sample was taken from the wells at 2 hrs and 24 hrs for quantification of LDH. LDH in supernatants was quantified using the Promega Cytotox 96 Non-Radioactive Cytotoxicity Assay Kit. Control samples for lysis in the absence of compounds were incubated for 45 minutes in Lysis Buffer (supplied in the kit) then collected at the same time points. The OD at 492 nm was measured spectrophotometrically on a SpectraMax 5 plate reader (Molecular Devices, Sunnyvale, Calif.).
The remaining 12 compounds were evaluated for toxicity to either Yptb or HEp-2 cells. […] The 9 non-antibacterial compounds were assessed for their ability to cause damage to epithelial cells by monitoring the release of lactate dehydrogenase (LDH), a cytoplasmic enzyme whose presence in cell supernatants indicates membrane damage. HEp-2 cells were incubated with 60 μM of each compound, in the absence of Yptb. Tissue culture supernatants were collected after 2 or 24 hours and assessed for LDH levels. […] In contrast, C35 had above baseline LDH release levels at 2 hours and this effect was exacerbated at 24 hours (FIG. 3B). […] Because of the high-level of toxicity caused by C35 at both time points, it was excluded from further characterization. In all subsequent experiments with the remaining 8 compounds, HEp-2 cells were exposed to compounds for 2 hours or less.

[6] = tested on: YscF polymer (TTSS needle); design: species or system Y. pseudotuberculosis; conditions: 60 μM compound, 1 mM BS3, Western blot with α-YscF
[7] = tested on: adherence of Yptb to HEp-2 cells; type: cell-based, Y. pseudotuberculosis
[8] = tested on: YadA-mediated autoagglutination; type: cell-based, Y. pseudotuberculosis; conditions: 60 μM C20, 3 hrs at 37 C
[9] = tested on: Sheep red blood cells infected with Yptb; type: cell-based
[10] = tested on: YopE translocation into HEp-2 cells; type: cell-based, Y. pseudotuberculosis; conditions: 60 μM compound; HEp-2 cells infected with Yptb, 45 minutes
[11] = tested on: Yop secretion; type: cell-based, Y. pseudotuberculosis; conditions: 60 μM compound, secretion media (absence of calcium), 37 C
[12] = tested on: YopE translocation into the cytosol of HEp-2 cells; type: cell-based, Y. pseudotuberculosis; conditions: 60 μM compound, compared to DMSO control
[13] = tested on: V. cholerae; conditions: mouse, in vivo; cited from earlier work
[14] = tested on: V. cholerae; conditions: cited from earlier work

Cc1ccc(C2=N/C(=C/Nc3ccc4c(c3)OCCO4)C(=O)O2)cc1 [Compound C38, (4E)-4-[(2,3-dihydro-1,4-benzodioxin-6-ylamino)methylene]-2-(p-tolyl)oxazol-5-one]
Effect on bacterial growth (OD600) [1]: no effect on bacterial growth
Surface YscF staining [2]: reduced
YopE/Yop leakage into culture supernatants [3]: elevated levels of Yop leakage
ExoS-dependent cell rounding [4]: reduced cell-rounding

Cc1nn(-c2ccccc2)c(C)c1/N=C/c1c(O)ccc2ccccc12 [Compound C20, 1-[(E)-(3,5-dimethyl-1-phenyl-pyrazol-4-yl)iminomethyl]naphthalen-2-ol]
Effect on bacterial growth (OD600) [1]: no effect on bacterial growth
LDH release at 24 hours [5]: slightly elevated LDH release
YscF cross-linking pattern (dimer crosslink) [6]: weaker dimer crosslink
YopE/Yop leakage into culture supernatants [3]: elevated levels of Yop leakage
Binding of Invasin-deleted (Δinv) Yptb to HEp-2 cells [7]: did not block the ability of C20 to further inhibit binding
Binding of Yptb to HEp-2 cells, of the levels of the DMSO-treated control ([7]; 60 μM compound, WT Yptb, ELISA): 15-20%
Autoagglutination activity of Yptb [8]: unaffected
Hemolysis (leakage of hemoglobin) of SRBCs infected with Yptb [9]: slightly reduced leakage of hemoglobin
ExoS-dependent cell rounding [4]: reduced cell-rounding

O=C1NC2=C(C(=O)c3ccccc32)C(c2ccccc2)S1 (centres unmarked) [Compound C15, 4-phenyl-1,4-dihydroindeno[1,2-d][1,3]thiazine-2,5-dione]
Effect on bacterial growth (OD600) [1]: no effect on bacterial growth
LDH release at 2 hours ([5]; 2 hours): elevated LDH release
LDH release at 24 hours [5]: did not cause further membrane damage
YscF cross-linking pattern (dimer crosslink) [6]: weaker dimer crosslink
YopE/Yop leakage into culture supernatants [3]: significant leakage
ExoS-dependent cell rounding [4]: little or no effect

c1ccc2c(-c3csc(-c4ccncc4)n3)c[nH]c2c1 [Compound C24, 4-(1H-indol-3-yl)-2-(4-pyridyl)thiazole]
Effect on bacterial growth (OD600) [1]: no effect on bacterial growth
LDH release at 24 hours [5]: slightly elevated LDH release
Surface YscF staining [2]: reduced
YopE/Yop leakage into culture supernatants [3]: significant leakage
ExoS-dependent cell rounding [4]: reduced cell-rounding

Cc1ccc(NC(=O)Nc2cc3c(cc2N2CCCC2)n(C)c(=O)n3C)cc1C [Compound C34, 1-(1,3-dimethyl-2-oxo-6-pyrrolidin-1-yl-benzimidazol-5-yl)-3-(3,4-dimethylphenyl)urea]
Inhibition of YopE-mediated cell rounding [10]: potent inhibitor of cell-rounding
Effect on bacterial growth (OD600) [1]: no effect on bacterial growth
YscF cross-linking pattern (dimer crosslink) [6]: consistently weaker
Ability to secrete Yops [11]: secreted less, but detectable levels of Yops
YopE translocation into HEp-2 cells [12]: did not inhibit translocation of YopE
YopE/Yop leakage into culture supernatants [3]: elevated levels of Yop leakage
ExoS-dependent cell rounding [4]: reduced cell-rounding

O=C(c1coc2nc3ccccc3nc12)N1CCN(c2ccccc2)CC1 [Compound C19, furo[3,2-b]quinoxalin-3-yl-(4-phenylpiperazin-1-yl)methanone]
Effect on bacterial growth (OD600) [1]: no effect on bacterial growth
YopE/Yop leakage into culture supernatants [3]: significant leakage
ExoS-dependent cell rounding [4]: little or no effect

O=C(O)CCCN1C(=O)c2cccc3cccc(c23)C1=O [Virstatin]
Bacterial burden on mice infected with V. cholerae [13]: reduces the bacterial burden
Effects on bacterial growth [14]: without deleterious effects on bacterial growth

CCOc1ccc(NC(=O)c2cnccn2)cc1 [Compound C7, N-(4-ethoxyphenyl)pyrazine-2-carboxamide]
Inhibition of YopE-mediated cell rounding [10]: cell-rounding defect was weak
Effect on bacterial growth (OD600) [1]: no effect on bacterial growth
YopE translocation into HEp-2 cells [12]: did not inhibit translocation of YopE
YopE/Yop leakage into culture supernatants [3]: significant leakage
ExoS-dependent cell rounding [4]: little or no effect
